# In patent publication US6780971B2, “Compositions for inhibiting the aggregation pathway of α-synuclein” (Panacea Pharmaceuticals, Inc., priority 2000, dated 2004):
# Entries after “also recorded” stand apart in the source; their conditions may differ.
# Columns and labels:
# [1] = tested on: BE-M17 cells expressing the human A53T α-synuclein cDNA; experiment: Aggregate formation in BE-M17 cells expressing A53T α-synuclein; assay type: cell-based
# [2] = tested on: primary cultures of cortical neurons; experiment: Neuronal process length and inclusions in primary cultures of cortical neurons; assay type: cell-based, rat; details: 0.3 mM FeCl2 plus 50 μM dopamine plus 1-2 mM magnesium, 3 days
# Description: How magnesium affected neurons from the central nervous system was also examined. Primary cultures of cortical neurons were treated with 0.3 mM FeCl2 plus 50 μM dopamine plus 0-2 mM MgCl2 for 3 days (a relatively low dose of iron was used to enable quantitation of neuronal processes). To quantify the amount of neuroprotection provided by magnesium, the percent of processes longer than 100 μm as a characteristic of cell viability was determined. […] Inclusions also formed in these neurons.
# [3] = tested on: BE-M17 neuroblastoma cells over-expressing wild type α-synuclein; experiment: α-Synuclein aggregation and inclusions in BE-M17 cells over-expressing wild type α-synuclein; assay type: cell-based, human; details: 1 mM FeCl2 plus 50 μM dopamine plus 1 mM MgCl2, 3 days
# Description: Immunohistochemistry: For light microscopy, cells are fixed with 4% paraformaldehyde, washed, permeabilized by incubation for 30 min with 0.2% Triton-X 100, blocked with 5% dry milk/1 % goat serum/PBS, washed and then incubated overnight in 1° antibody (1:500). Development is with an ABC kit and 3′, 3′-diaminobenzidine as per manufacturer's directions (Vector, Burlingame, Calif.).
# (§1) To test this, the inventors examined the ability of magnesium to inhibit α-synuclein aggregation in primary cortical neurons grown in cell culture. Primary cortical neurons were treated with 1 mM FeCl2 plus 0-1.5 mM MgCl2 for 3 days, the α-synuclein was immunublotted and the amount of aggregate determined by video densitometry. […] Doses as low as 0.5 mM of magnesium produced statistically significant reduction in formation of α-synuclein positive aggregates.
# Next, whether magnesium also prevents formation of α-synuclein-positive inclusions in BE-M17 neurons stably over-expressing wildtype α-synuclein was investigated. The neurons were treated with 1 mM FeCl2 plus 50 μM dopamine plus 0 or 1 mM MgCl2 for 3 days, and then examined by immunocytochemistry using anti-α-synuclein and anti-ubiquitin antibodies.
# primary cortical neurons [4] = experiment: Ubiquitin-positive α-synuclein aggregates in primary cortical neurons (immunoprecipitation, anti-ubiquitin immunoblot); assay type: cell-based, rat; details: 0.3 mM iron and 50 μM dopamine, 3 days
# Description: The inventors also examined the amount of aggregates present using an antibody to ubiquitin. As set forth previously, the accumulation of high molecular weight ubiquitin adducts correlates with the formation of α-synuclein aggregates. Primary cortical neurons were treated as described above and the aggregates were immunoprecipitated with anti-α-synuclein antibody and immunoblotted with anti-ubiquitin antibody. An increase in ubiquitination of α-synuclein upon treatment with 0.3 mM iron and 50 μM dopamine for 3 days was observed. However, treating the cells with magnesium produced a statistically significant decrease in ubiquitin immunoreactivity with doses as low as 0.5 mM (n=3, P<0.0001). Thus, magnesium inhibits formation of ubiquitin positive α-synuclein aggregates in primary neurons.
# A53T α-synuclein [5] = target: T1, A53T α-synuclein (Homo sapiens, UniProt P37840, A53T); experiment: Tyrosine fluorescence assay of metal binding to A53T α-synuclein
# T1 construct: His-6 (cleaved yes); made in house; host or cells: bacteria (IPTG-induced; Pro-Ex His 6 vector)
# Description: We also examined how the A53T mutation in human α-synuclein affected binding of iron and magnesium. […] Previous studies have shown that A53T mutation changes the conformation of α-synuclein by increasing its helical content (Polymeropoulos et al., Science, 276:2045-7(1997)). These conformational changes might also reduce binding of magnesium to α-synuclein.
# [6] = tested on: BE-M17 neuroblastoma cells; experiment: Neuroprotection against FeCl2 plus dopamine, MTT assay; details: 0.8 mM MgCl2, 2 days
# Description: MTT and LDH toxicity assay: Cells were plated in 96 well dishes at 5000 cells/well in 100 μl growth medium. For the MTT assay, viability following 48 hrs of pharmacological treatment was analyzed by adding 0.5 mg/ml MTT (MTT, 3-[4,5-dimethylthiazol-2-yl]-2,5-diphenyltetrazolium bromide) and incubating at 37° C. for 3 hrs. Lysis buffer (100 μl of 20% SDS in 50% N, N-dimethylformamide) was then added and the plates are read at 540 nm after 24 hrs. For the lactate dehydrogenase (LDH) assay, viability following 24 hrs of pharmacological treatment was analyzed using MTS reagent and the Cytox 96 kit (Promega) according to manufacturer's directions.
# α-synuclein = target: T2, α-synuclein (Homo sapiens, UniProt P37840); experiment: Tyrosine fluorescence assay of metal binding to α-synuclein; details: magnesium co-incubated with iron
# T2 construct: His-6 (cleaved yes); made in house; host or cells: bacteria (IPTG-induced; Pro-Ex His 6 vector)
# Description: Because iron binds to other proteins that form aggregates and iron is known to accumulate in Parkinson's disease, iron might bind directly to α-synuclein. To confirm this hypothesis, the interaction of iron with α-synuclein was tested using tyrosine fluorescence as an indicator of iron binding. […] Fluorescence of tyrosine has been used to monitor binding of metals to β-amyloid [Garzon-Rodriguez W. et al., Bioorg. Med. Chem. Let., 9:2243-2248 (1999), which is hereby incorporated by reference]. A similar approach was taken to analyze binding of iron to α-synuclein. Tyrosine has a fluorescence emission spectrum that has a peak emission of 310 nm when excited at 280 nm, respectively (FIG. 2A). It was observed that binding of iron reduced the fluorescence of the tyrosines in α-synuclein. […] The Hill coefficient was 1.0 (R^2=1.0, P<0.0001), indicating one binding site for iron with no cooperativity (FIGS. 2A & B). α-Synuclein was also tested for binding to other metals, including CuCl2, ZnCl2 and MgCl2. Because the C-terminus of α-synuclein has a region with 7 glutamates and 4 aspartates, which together could chelate iron, we created a deletion construct lacking the last 27 amino acids on α-synuclein and analyzed binding of this construct.
# To monitor the binding profiles of Fe(II) and Mg(II) to α-synuclein in vitro we used changes of tyrosine fluorescence. Tyrosine fluorescence is used as an indicator of changes in protein conformation or binding of metals. Excitation of tyrosine at 280 nm elicits fluorescence that peaks at 310 nm for monomeric tyrosine, and at 350-400 nm for tyrosinate or dimeric tyrosine. The fluorescence spectrum of α-synuclein yielded fluorescence peaks at 310 and 400 nm. The peak at 400 nm cannot be explained by the presence of dimeric tyrosine, due to dimerization of α-synuclein, because dimerization of α-synuclein decreases the fluorescence at 400 nm, and tends to eliminate the peak at 400 nm.
# A53T α-synuclein [7] = target: T1, A53T α-synuclein; experiment: Iron-induced aggregation of recombinant A53T α-synuclein (immunoblot, video densitometry); assay type: biochemical; details: 0-3 mM FeCl2, 100 μM MgCl2, 24 hrs
# Description: We incubated recombinant A53T α-synuclein with 0-3 mM FeCl2 and 0 or 100 μM MgCl2 for 24 hrs, then immunoblotted the α-synuclein and quantified aggregation by video densitometry.
# [8] = target: T3, wildtype recombinant α-synuclein (Homo sapiens, UniProt P37840); experiment: Aggregation of recombinant wildtype α-synuclein (immunoblot, video densitometry, thioflavine-S); assay type: biochemical
# T3 construct: His-6 (cleaved yes); made in house; host or cells: bacteria (IPTG-induced; Pro-Ex His 6 vector)
# Description: Knowing that magnesium and iron induce opposing changes in α-synuclein tyrosine fluorescence, it is believed that binding of magnesium might convert α-synuclein to a conformation that resists aggregation perhaps by preventing β-pleated sheet formation. To test this, wildtype recombinant α-synuclein was incubated with 0-3 mM FeCl2 and 0 or 100 μM MgCl2 for 24 hrs at 37° C., then immunoblotting was performed for α-synuclein and quantified aggregation by video densitometry.
# primary cortical neurons [9] = experiment: α-Synuclein aggregation in primary cortical neurons (immunoblot, video densitometry); assay type: cell-based, rat
# Description: Immunoblotting: Cells were harvested with SDS lysis solution (2% SDS, 10 mM Tris, pH 7.4, 2 mM β-glycerol phosphate, 1 μM AEBSF). The amount of protein was determined using the BCA assay (Pierce), […] per lane was run on 14% SDS polyacrylamide gels and transferred to nitrocellulose (200 mAmp, 12 hrs). The nitrocellulose was then incubated 1 hr in 5% milk/PBS, washed, incubated overnight in 1° antibody, washed, then incubated 3 hrs in peroxidase coupled 2° antibody and developed with chemiluminescent reagent (NEN).
# as §1
smiles,measurement,setting,value
"[Cl-].[Cl-].[Mg+2] [magnesium, MgCl2]",aggregate formation,[1],unable to inhibit aggregate formation
same,formation of α-synuclein-positive inclusions,[2],did not exhibit any formation of α-synuclein-positive inclusions
same,loss of neuronal processes over 100 μm,[2],20%
same,α-synuclein-positive inclusions (immunocytochemistry),[3],little accumulation of α-synuclein-positive inclusions
same,lowest dose producing statistically significant decrease in ubiquitin immunoreactivity,primary cortical neurons [4],0.5 mM
same,effect of A53T mutation on binding to α-synuclein,A53T α-synuclein [5],abolish the interaction
same,increase in cell survival versus Fe2+/dopamine alone,[6]; control (vector) cell line,1.3 fold
same,increase in cell survival versus Fe2+/dopamine alone,[6]; wildtype α-synuclein cell line,2.4 fold
same,effect of co-incubation on iron-induced quenching of tyrosine fluorescence,α-synuclein,did not prevent iron-induced quenching
same,iron-induced aggregation of A53T α-synuclein,A53T α-synuclein [7],unable to inhibit iron-induced aggregation
same,iron-induced formation of high molecular weight aggregates of α-synuclein,"[8]; 0-3 mM FeCl2, 100 μM (0.1 mM) MgCl2, 24 hrs, 37° C.",striking reduction in formation of high molecular weight aggregates; also recorded: inhibits iron-induced aggregation
same,spontaneous aggregation of α-synuclein,"[8]; separate experiments, no iron",inhibited spontaneous aggregation
same,magnesium required to inhibit α-synuclein aggregation in vitro,[8]; stated as MgSO4 clinical range,0.5 to 2 mM
same,lowest dose producing statistically significant reduction of α-synuclein positive aggregates,"primary cortical neurons [9]; 1 mM FeCl2, 3 days",0.5 mM
same,formation of high molecular weight α-synuclein aggregates,"primary cortical neurons [9]; 1 mM FeCl2, magnesium 0.2 to 1.5 mM, 3 days",dose-dependent reduction
